# Data taken from ChEMBL document CHEMBL6127040, “Discovery and optimization of isoliquiritigenin as a death-associated protein kinase 1 inhibitor” (Eur J Med Chem, 2024).
# pKd: −log10 of the molar value.
# Target: Death-associated protein kinase 1 (Homo sapiens, UniProt P53355)
# Experiment: Binding affinity to DAPK1 (unknown origin) assessed as dissociation constant by ITC analysis
# Death-associated protein kinase 1, sequence (P53355 whole entry): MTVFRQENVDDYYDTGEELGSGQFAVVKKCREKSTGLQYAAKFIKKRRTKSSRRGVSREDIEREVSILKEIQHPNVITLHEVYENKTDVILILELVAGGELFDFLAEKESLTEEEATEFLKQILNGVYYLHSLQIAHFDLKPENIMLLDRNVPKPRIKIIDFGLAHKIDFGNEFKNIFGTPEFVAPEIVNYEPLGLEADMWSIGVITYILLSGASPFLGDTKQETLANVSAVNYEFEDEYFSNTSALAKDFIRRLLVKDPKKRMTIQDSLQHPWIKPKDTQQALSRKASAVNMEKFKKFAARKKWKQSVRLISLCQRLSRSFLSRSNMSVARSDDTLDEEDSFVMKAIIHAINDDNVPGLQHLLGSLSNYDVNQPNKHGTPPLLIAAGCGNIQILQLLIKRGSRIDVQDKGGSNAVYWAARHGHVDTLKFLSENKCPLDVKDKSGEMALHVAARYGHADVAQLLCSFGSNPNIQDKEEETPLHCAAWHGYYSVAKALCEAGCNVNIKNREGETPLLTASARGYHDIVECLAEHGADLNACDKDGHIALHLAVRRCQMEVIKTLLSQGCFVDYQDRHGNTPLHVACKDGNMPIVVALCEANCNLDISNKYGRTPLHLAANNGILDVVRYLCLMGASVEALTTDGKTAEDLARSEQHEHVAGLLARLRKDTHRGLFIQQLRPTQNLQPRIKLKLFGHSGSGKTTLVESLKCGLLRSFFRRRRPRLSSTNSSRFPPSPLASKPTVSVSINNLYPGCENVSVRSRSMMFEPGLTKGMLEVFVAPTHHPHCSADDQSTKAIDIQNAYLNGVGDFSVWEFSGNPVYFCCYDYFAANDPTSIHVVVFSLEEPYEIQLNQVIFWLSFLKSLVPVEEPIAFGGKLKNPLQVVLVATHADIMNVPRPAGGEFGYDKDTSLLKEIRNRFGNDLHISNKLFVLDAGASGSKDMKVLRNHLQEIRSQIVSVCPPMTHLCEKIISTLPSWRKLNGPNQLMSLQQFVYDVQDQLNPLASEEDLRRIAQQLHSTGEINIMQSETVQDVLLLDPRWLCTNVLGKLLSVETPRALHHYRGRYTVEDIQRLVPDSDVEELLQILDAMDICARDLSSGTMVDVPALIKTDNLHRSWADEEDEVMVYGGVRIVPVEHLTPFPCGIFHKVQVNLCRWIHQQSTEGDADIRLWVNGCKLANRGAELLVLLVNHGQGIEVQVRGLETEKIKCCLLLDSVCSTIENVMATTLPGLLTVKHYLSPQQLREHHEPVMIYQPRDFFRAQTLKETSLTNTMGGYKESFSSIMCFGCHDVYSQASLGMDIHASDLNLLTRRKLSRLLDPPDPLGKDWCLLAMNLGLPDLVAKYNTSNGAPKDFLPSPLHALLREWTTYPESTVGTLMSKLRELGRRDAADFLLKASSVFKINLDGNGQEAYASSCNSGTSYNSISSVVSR
compound,measurement,value
O=C(/C=C/c1ccc(O)cc1)c1ccc(O)cc1O [ISOLIQUIRITIGENIN],pKd,5.61
